Assay results taken from patent publication US10829493B2, “Compositions and methods for treating KIT- and PDGFRA-mediated diseases” (Blueprint Medicines Corporation, priority 2019, dated 2020).
Where “and” joins values, the source holds several entries; their conditions need not be identical. Equal entries are not always repeated. Where two headings read alike, the source gives them in different places.

Tests used:
[1] = Monkey brain to plasma ratio (Kp, Kpuu) after iv bolus and 2-hour iv infusion; format: in vivo
Experimental: A single IV bolus dose followed by a 2-hour iv infusion of the compound was administered to the monkey (3 monkeys/compound). Blood was collected from a femoral vein predose, right after the bolus administration and at the end of the infusion. The monkey was euthanized after the infusion and brain tissue was collected. Toxicokinetic evaluation of plasma (obtained by centrifugation of blood) and brain (homogenized in a buffer) was conducted to obtain brain to plasma ratio (Kp) of the compound. Kpuu was calculated by taking into consideration the fu,plasma and fu,brain as discussed above.

[2] = Rat brain protein binding in rat brain slices; format: in vitro ADME; conditions: rat brain slices (300 um thick); 300 um thick rat brain slices (striatum area); read-out: fu,brain (rat brain slices)
Experimental: Alternatively, rat brain protein binding of compounds 4 and 63 was evaluated in vitro by employing 300 um thick rat brain slices (striatum area) in an incubation tray. The fu,brain of compounds 4 and 63 by this method was 0.329% and 0.057% respectively. In that case, the Kp,uu, brain of 4 and 63 are 0.028 and 0.044 respectively.

[3] = Rat brain protein binding in brain homogenate, equilibrium dialysis; format: in vitro ADME; conditions: equilibrium dialysis 5 hours at 37° C., read-out: fu,brain (brain homogenate)
Experimental: Similarly, rat brain protein binding of 4 and 63 were also evaluated in vitro using equilibrium dialysis method. 1 μM of the compound was assessed in brain homogenate in a dialysis block for 5 hours at 37° C. Samples from the donor and receiver sides were analyzed by LC-MS/MS. Brain protein bound and unbound fractions were calculated using the equations mentions above (Equations 1 and 2). Due to extensive protein binding, 4 was diluted further 4× for the brain homogenate measurement. The fu,brain of 4 and 63 were 0.29% and 0.1% respectively.

[4] = Brain penetration in rats, brain to plasma ratios (Kp,brain, Kpuu,brain); format: in vivo, Sprague-Dawley rats; conditions: for concentration at 24 h / Kp uu at 24 h: intravenous
Source text: To understand the brain penetration, brain to plasma ratios of the compounds were obtained in Sprague-Dawley (SD) rats. In vivo equilibrium distribution between blood and brain in preclinical species such as rats is a commonly used parameter to evaluate brain penetration. Kp,brain is the ratio of concentrations in brain and blood (Cbrain/Cplasma) The compound's passive diffusion characteristics, its affinity for membrane transporters at the blood-brain barrier (BBB), and the relative drug binding affinity differences between the plasma proteins and brain tissue influence the Kp,brain.
The animals received IV infusion of 1 mg/kg/hr of the compound over 24 hours via jugular vein cannulation. At 24 hours, blood was collected via tail vein bleeding or cardiac puncture (under anesthesia) and centrifuged to obtain plasma samples. Brain tissues were collected and homogenized with phosphate-buffered saline (PBS). The concentrations of the compounds were obtained in the plasma and brain homogenates by LC-MS/MS analysis.

[5] = Rat plasma protein binding, equilibrium dialysis; format: in vitro ADME; conditions: 100% rat plasma, equilibrium dialysis 5 hours at 37° C.; for fraction unbound at 5 h, 10 μM: read-out: Fraction unbound fu,p, rat plasma
Experimental: Rat plasma protein binding of 4 and 63 were evaluated in vitro using an equilibrium dialysis method. […] Samples from the donor and receiver sides were analyzed by LC-MS/MS. Plasma protein bound and unbound fractions were calculated using the following equations—d Fraction bound (fb)*(%)=100×([Donor]5h−[Receiver]5h)/[Donor]5h (Equation 1) Fraction unbound (fu),p*(%)=100−% Bound* (Equation 2) where: [Donor]5h is measured donor concentration at 5-hour; [Received]5h is measured receiver concentration at 5-hour; fb* is bound fraction determined from plasma; fu,p* is calculated unbound fraction for plasma. Warfarin and quinidine were used as positive controls.

UT-7 cells = test: UT-7 cell proliferation with SCF stimulation as a measure of wild-type KIT activity (CellTiter-Glo); format: cell-based, human; conditions: Homo sapiens, UT7, 72 h, SCF-stimulated UT-7 cell proliferation
Source text: UT-7 Cell Proliferation with SCF Stimulation Assay as a Measure of Wild-Type KIT Activity
UT-7 cells are human megakaryoblastic leukemia cell lines that can be grown in culture with dependence on granulocyte macrophage colony stimulating factor (GM-CSF) or stem cell factor (SCF). UT-7 cells respond to SCF stimulation by activation of the KIT receptor tyrosine kinase and subsequent downstream signaling that can support cell growth and proliferation (Kuriu et al, 1999; Komatsu et al, 1991; Sasaki et al, 1995). Test compounds were assayed for their ability to inhibit SCF-stimulated proliferation of UT-7 cells.
Inhibition of SCF-stimulated UT-7 cell proliferation was assessed using the CellTiter-Glo assay that quantifies the amount of adenosine triphosphate (ATP) present, which is a readout of metabolically active cells and is directly proportional to the number of viable cells in culture. The ability of test compounds to inhibit SCF-stimulated UT-7 cell proliferation was determined using a 10-point dose curve ranging from 25 μM to 95.4 pM of test compound.
UT-7 cells were maintained in IMDM supplemented with 10% FBS, 5 ng/mL GM-CSF and 100 units/mL Penicillin-Streptomycin and grown in a 37° C. humidified tissue culture incubator. UT-7 cells were washed once with serum free, GM-CSF free IMDM. Cells were then resuspended in IMDM containing 4% FBS and 50 ng/mL SCF and seeded at 2500 cells per well in a volume of 22 μL in a 384-well microplate. A 10-point dose concentration series of test compounds (25.0 μM to 95.4 pM) were then added to the cells in a volume of 3.1 μL to each well (0.25% DMSO final concentration) and placed in a tissue culture incubator (5% CO2, 37° C.) for 72 hours. After 3-days with test compound, CellTiter-Glo reagent was prepared fresh and 25 μL of reagent was added to each well. The plate was mixed by shaking for 10 minutes at RT at 300 rpm on a plate shaker. The plate was read on an EnVision plate reader using the Ultra Sensitive Luminescence protocol for a 384-well plate.

CYP2C9 = CYP2C9 (Homo sapiens (Human), UniProt P11712); test: CYP inhibition in human liver microsomes, CYP2C9 (diclofenac); format: in vitro ADME; conditions: pooled human liver microsomes, substrate diclofenac
Chain of CYP2C9 (P11712 whole entry): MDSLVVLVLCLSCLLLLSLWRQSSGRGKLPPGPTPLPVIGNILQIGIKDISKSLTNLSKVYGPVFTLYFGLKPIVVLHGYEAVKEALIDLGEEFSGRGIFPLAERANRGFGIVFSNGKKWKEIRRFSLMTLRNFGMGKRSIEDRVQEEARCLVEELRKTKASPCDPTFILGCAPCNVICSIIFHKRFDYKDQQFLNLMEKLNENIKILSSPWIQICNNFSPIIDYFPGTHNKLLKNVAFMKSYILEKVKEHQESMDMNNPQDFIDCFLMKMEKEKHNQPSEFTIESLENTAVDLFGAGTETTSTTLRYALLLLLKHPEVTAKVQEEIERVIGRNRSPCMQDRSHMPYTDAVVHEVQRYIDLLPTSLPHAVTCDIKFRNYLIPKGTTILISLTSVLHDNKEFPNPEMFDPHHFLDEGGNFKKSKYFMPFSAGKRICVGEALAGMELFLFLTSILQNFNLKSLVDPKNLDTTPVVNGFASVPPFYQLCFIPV
Experimental: In vitro studies in human liver microsomes were run according the standard method. […] The samples were then analyzed by LC-MS/MS for the quantification of the probe substrate left after the reaction and the IC50 values were determined by non-linear regression. The substrates for CYP2C9, CYP2D6, CYP3A4 were diclofenac, dextromethorphan and midazolam/testosterone respectively.

[6] = Sprague-Dawley, rat, brain, 1 mg/kg/hr, individual rats (Rat 1-3), IV infusion 1 mg/kg/hr over 24 hours, at 24 hours, read-out: Brain Concentration
[7] = Sprague-Dawley, rat, brain, 1 mg/kg/hr, mean of 3 rats, IV infusion 1 mg/kg/hr over 24 hours, at 24 hours, read-out: Brain Concentration (ng/mL), Mean
[8] = Sprague-Dawley, rat, brain, 1 mg/kg/hr, rat, from total mean brain concentration and fu,brain (homogenate), read-out: Unbound concentration, Brain
[9] = Sprague-Dawley, rat, plasma, 1 mg/kg/hr, individual rats (Rat 1-3), IV infusion 1 mg/kg/hr over 24 hours, at 24 hours, read-out: Plasma Concentration
[10] = Sprague-Dawley, rat, plasma, 1 mg/kg/hr, mean of 3 rats, IV infusion 1 mg/kg/hr over 24 hours, at 24 hours, read-out: Plasma Concentration (ng/mL), Mean
[11] = Sprague-Dawley, rat, plasma, 1 mg/kg/hr, rat, from total mean plasma concentration and fu,p, read-out: Unbound concentration, Plasma
[12] = individual rats (Rat 1-3), IV infusion 1 mg/kg/hr over 24 hours, at 24 hours
[13] = mean of 3 rats, IV infusion 1 mg/kg/hr over 24 hours, at 24 hours
[14] = rat, unbound brain to plasma ratio, fu,brain from brain homogenate

fraction unbound [2] | fraction unbound at 5 h, 1 μM [3] | concentration at 24 h [4, 6] [ng/mL] | concentration at 24 h [4, 7] [ng/mL] | concentration at 24 h [4, 8] [ng/mL] | concentration at 24 h [4, 9] [ng/mL] | concentration at 24 h [4, 10] [ng/mL] | concentration at 24 h [4, 11] [ng/mL] | Brain Concentration [4, 12] | Kp, brain [4, 12] | Plasma Concentration [4, 12] | Kp, brain, Mean [4, 13] | Kpuu,brain [4, 14] | Fraction bound (fb), rat plasma [5] [%] | fraction unbound at 5 h, 10 μM [5] | SMILES | IC50 (UT-7 cells) [nM] | further results
0.00329 | 0.0029 | 152 | 183 | 0.53 | 859 | 1050 | 21.9 | 188 ng/mL and 208 ng/mL | 0.177 and 0.168 and 0.174 | 1120 ng/mL and 1180 ng/mL | 0.17 and 0.174 | 0.024 | 97.92 | 0.0208 | C[C@](N)(c1ccc(F)cc1)c1cnc(N2CCN(c3ncnn4cc(-c5cnn(CCO)c5)cc34)CC2)nc1 [Compound 4, (S)-2-(4-(4-(4-(5-(1-amino-1-(4-fluorophenyl)ethyl)pyrimidin-2-yl)piperazin-1-yl)pyrrolo[2,1-f][1,2,4]triazin-6-yl)-1H-pyrazol-1-yl)ethanol] | < 90 | Kp (Brain:Plasma) ([1]; IV bolus followed by 2-hour iv infusion): 0.09; Kpuu ([1]; calculated with fu,plasma and fu,brain): 0.01; Kp,uu, brain (brain slice method) ([4]; rat, fu,brain from brain slices): 0.028; IC50 (CYP2C9): 7130 nM
0.00057 | 0.001 | 1920 | 1700 | 1.7 | 1140 | 1010 | 2.02 | 1890 ng/mL and 1300 ng/mL | 1.68 and 2.40 and 1.18 | 789 ng/mL and 1100 ng/mL | 1.75 | 0.84 | 99.8 | 0.002 | CCn1cc(-c2cc3c(N4CCN(c5ncc([C@@](C)(N)c6ccc(F)cc6)cn5)CC4)ncnn3c2)cn1 [Compound 63, reference compound] | 150 to 200 | Kp at 2 h ([1]; brain, IV bolus followed by 2-hour iv infusion): 1.86; Kp uu at 2 h ([1]; intravenous, calculated with fu,plasma and fu,brain): 0.92; Kp uu at 24 h ([4]; Sprague-Dawley, rat, brain, 1 mg/kg/hr, rat, fu,brain from brain slices, read-out: Kp,uu, brain (brain slice method)): 0.044; Kp uu at 24 h ([4]; Sprague-Dawley, rat, brain, 1 mg/kg/hr, rat, unbound brain to plasma ratio, fu,brain from brain homogenate, read-out: Kpuu,brain): 0.84; Kp at 24 h ([4]; Sprague-Dawley, rat, brain, iv, 1 mg/kg/hr, mean of 3 rats, IV infusion 1 mg/kg/hr over 24 hours, at 24 hours, read-out: Kp, brain, Mean): 1.8
